Laboratory results: US9879011B2, “Amorphous form of linagliptin and process for preparation thereof” (CADILA HEALTHCARE LIMITED, priority 2012, dated 2018)

Experiment: storage stability of amorphous form (polymorphic form by x-ray powder diffraction)
Type: physicochemical
Conditions: amorphous form dried under vacuum at about 50° C. to 70° C.; ordinary stability conditions (75% RH at 40° C. or 60% RH at 25° C.); no change in polymorphic form by XRPD
Method: The obtained linagliptin may be dried under vacuum at about 50° C. to 70° C. for 6-12 hours to get amorphous form substantially free from residual solvents. Thus obtained amorphous linagliptin is stable under ordinary stability conditions at least for 3 months and doesn't change to crystalline form.
The stable amorphous form of linagliptin may be stored under nitrogen atmosphere and packed in a double polythene bag tied with a thread, keeping primary packing containing amorphous linagliptin inside a black color polyethylene bag containing oxygen busters and sealing it, placing above the double polyethylene bag inside a triple laminated bag optionally containing oxygen busters and sealing it, and placing the sealed triple laminated bag inside a closed high density polyethylene (HDPE) container and storing in controlled environment chamber at about 25° C. and/or 40° C.
The X-ray powder diffraction spectrum was measured under the following experimental conditions: • Instrument: X-Ray Diffractometer, D/Max-2200/PC Make: Rigaku, Japan. • X-Ray: Cu/40 kv/40 mA • Diverging: 10 • Scattering Slit: 10 • Receiving Slit: 0.15 mm • Monochromator RS: 0.8 mm • Counter: Scintillation Counter • Scan Mode: Continuous • Scan Speed: 3.0000/Min • Sampling Width: 0.020 • Scan Axes: Two Theta/Theta • Scan Range: 2.0000 to 40.0000 • Theta Offset: 0.0000

Q: With `CC#CCn1c(N2CCC[C@@H](N)C2)nc2c1c(=O)n(Cc1nc(C)c3ccccc3n1)c(=O)n2C` [amorphous linagliptin, 8-[(R)-3-aminopiperidin-1-yl]-7-(but-2-yn-1-yl)-3-methyl-1-[(4-methyl-quinazolin-2-yl)methyl]-3,7-dihydro-1H-purine-2,6-dione] as the compound, how does the “stable under ordinary stability conditions, doesn't change to crystalline form” value read?
A: ≥ 3 months
